# PMC4912613, “A broad analysis of resistance development in the malaria parasite” (Nature Communications, 2016)
# Key:
# [1] = tested on: NITD609-R2 (PfATP4 T418N and P990R, parent Dd2); assay: Cross-resistance EC50 assay, NITD609-R2; assay type: cell-based; conditions: Plasmodium falciparum, SYBR green 72 hour assay, asynchronized parasites, 96-well or 1536-well format
# Source text: (§1) To evaluate potential overlapping activity against known antimalarial drug targets, we performed dose-response studies with each compound against our assembled set of drug-resistant lines and their corresponding parents, in an asexual blood stage proliferation assay (Table 1). Comparisons were made to the drug-sensitive strain 3D7 when a parent was unavailable (TM90C2A, W2 and Dd2). As laboratories conducted EC50 assays with different strains and protocols, all comparisons were made between assays from the same laboratory and under the same assay conditions. Compounds displaying >5-fold EC50 shifts relative to the parent or sensitive strain were flagged as having potentially non-novel targets. Average fold shifts per strain ranged from 0.82 to 2.34, with a median of 1.23 indicating there was not common resistance to any one resistant clone. No resistance patterns were observed when classifying the compounds based on chemical structure, but this was not surprising given the diversity of compounds chosen. On the other hand, given that these confirmed compounds were derived from larger unconfirmed hit lists to which some filtration criteria may have been applied (for example, elimination of obvious dihydrofolate reductase inhibitors[32]), some[10][11][12][13] pre-existing bias may exist in the set. […]
# (§2) Alternatively, a SYBR Green-based proliferation approach was used for the 72-h assay, as previously described. Briefly, a culture of either synchronized or asynchronous parasitized RBCs (0.3% parasitemia and 4% haematocrit) in screening medium (identical to supplemented medium above except no serum was added) was exposed to serial drug dilutions. Plates were incubated at 37 °C and gassed with 93% N2, 4% CO2 and 3% O2 for 72 h. Following incubation, 10 × SYBR Green I (Invitrogen; supplied in 10,000 × concentration) in lysis buffer ([…], 5 mM EDTA, 0.16% Saponin wt per vol and 1.6% Triton X vol per vol) was added to the wells and the plates were incubated overnight at room temperature before plate reading. EC50 assays were repeated three times, taking the average EC50 value from each assay set, and removing any outliers using a single iteration of Grubbs' test, eliminating values with z-scores above the critical z-value (α=0.05). The raw EC50 values for synchronized parasites assayed in a 384-well format are listed in Supplementary Data 4. The raw EC50 values for asynchronous parasites assayed in a 96 or 1536-well format are listed in Supplementary Data 5.
# (§3) EC50 values for each strain were compared with those of the corresponding parent strain to determine fold-shift changes and identify resistance. To minimize the cause variance between assays, all comparisons were conducted between strains assayed under identical conditions. A one-way ANOVA followed by a Dunnet's post-test was conducted in GraphPad Prism to identify significant changes between the parent and resistant strain.
# W2 = assay: Cross-resistance EC50 assay, W2 parent; assay type: cell-based, Plasmodium falciparum; conditions: for EC50: Plasmodium falciparum, 48 h, read-out: W2F6 (PARENT) Average EC50
# Source text: Multidrug resistance alleles, including mutations in P. falciparum chloroquine resistance transporter (pfcrt) and P. falciparum multi-drug resistance transporter 1 (pfmdr1) are very common in field isolates. Therefore, we sought to assess the degree to which pre-existing resistance alleles would contribute to a loss of potency for this diverse collection of small molecule compounds. Fifteen clones derived from three main parent lines were chosen to maximize diversity in mutated pathways and genetic backgrounds, thus representing the variety of resistance seen in the field: 3D7 (ref. [23]), W2 (ref. [24]) or Dd2 (ref. [25]). The 3D7 line originates from the clone of a Netherlands clinical isolate strain[23][26] and is generally considered to be drug sensitive, though it does convey resistance to sulfadoxine. Conversely, W2 (ref. [24], [27]) and Dd2 (ref. [25]) are multi-drug-resistant lines originating from the Indochina III/CDC isolate, which contain point mutations in pfcrt as well as amplifications in pfmdr1 and GTP cyclohydrolase.
# To evaluate potential overlapping activity against known antimalarial drug targets, we performed dose-response studies with each compound against our assembled set of drug-resistant lines and their corresponding parents, in an asexual blood stage proliferation assay (Table 1). Comparisons were made to the drug-sensitive strain 3D7 when a parent was unavailable (TM90C2A, W2 and Dd2). As laboratories conducted EC50 assays with different strains and protocols, all comparisons were made between assays from the same laboratory and under the same assay conditions. Compounds displaying >5-fold EC50 shifts relative to the parent or sensitive strain were flagged as having potentially non-novel targets. Average fold shifts per strain ranged from 0.82 to 2.34, with a median of 1.23 indicating there was not common resistance to any one resistant clone. No resistance patterns were observed when classifying the compounds based on chemical structure, but this was not surprising given the diversity of compounds chosen. On the other hand, given that these confirmed compounds were derived from larger unconfirmed hit lists to which some filtration criteria may have been applied (for example, elimination of obvious dihydrofolate reductase inhibitors[32]), some[10][11][12][13] pre-existing bias may exist in the set.
# The 48-h assay was carried out in a 96-well format following standard methods using the ^3H-hypoxanthine incorporation assay. The raw EC50 values corresponding to this assay can be found in Supplementary Data 3. Briefly, this assay relies on the parasite incorporation of labelled hypoxanthine that is proportional to P. falciparum growth. A culture of parasitized RBCs (0.5% parasitemia with a percentage of ring stage higher than 70% of total parasitemia, 2.0% haematocrit) in RPMI-1640, […] and 5 μM hypoxanthine was exposed to drug serial dilutions. Plates were incubated for 24 h at 37 °C, 5% CO2, 5% O2 and 90% N2. After 24 h of incubation, ^3H-hypoxanthine was added and plates were incubated for an additional 24-h period. After that, parasites were harvested on a glass fibre filter using a TOMTEC Cell Harvester 96. Filters were dried and melt-on scintillator sheets were used to determine the incorporation of ^3H-hypoxanthine. Radioactivity was measured using a microbeta counter. Data were normalized using the incorporation of the positive (parasitized RBCs without drug) and negative (same culture with artesunate at 2 μM) controls. All assays were conducted in triplicate using three independently grown cultures, and EC50 values were determined using the XLfit add-in module for Excel (version 2.3.1) from Grafit (version 5.3.1.3), where parameter h is the assay hill slope, x is the compound concentration and y is the inhibition of growth effect. The XLfit equation is: […]
# Alternatively, a SYBR Green-based proliferation approach was used for the 72-h assay, as previously described. […]
# [2] = tested on: GNF449-R2 (PfATP4 I203L and P990R, parent Dd2); assay: Cross-resistance EC50 assay, GNF449-R2; assay type: cell-based; conditions: Plasmodium falciparum, SYBR green 72 hour assay, asynchronized parasites, 96-well or 1536-well format
# Source text: as §1, §2, §3
# [3] = tested on: ProRS (prolyl t-RNA synthetase L482H, parent Dd2); assay: Cross-resistance EC50 assay, ProRS; assay type: cell-based; conditions: Plasmodium falciparum, SYBR green 72 hour assay, synchronized parasites, 384-well format
# Source text: as §1, §2, §3
Compound,EC50 [1],EC50 (W2),EC50 [2],EC50 ([3]; strain ProRS (Dd2 parent)),potency against W2 strains (W2; compared with 3D7),"EC50 ([3]; DD2, ProRS strain)"
CCN(CC)S(=O)(=O)c1ccc(-c2csc(Nc3ccc(C)c(C)c3)n2)cc1 [MMV009108],0.574 µM,0.378 µM,1.01 µM,0.373 µM,–,–
CN1CCN(c2ccc(Nc3c4ccccc4nc4ccccc34)cc2)CC1 [MMV006172],0.242 µM,0.227 µM,0.31 µM,0.125 µM,–,–
Cc1c(C)n(Cc2ccc(F)cc2)c2ccc(C(=O)NCc3ccco3)cc12 [MMV008149],0.934 µM,0.805 µM,1.36 µM,0.067 µM,–,–
CC(C)c1cccc(C(NC(=O)C2Cc3ccccc3CN2C(=O)c2cccc(N3CCOCC3)c2)C2CCCC2)c1 (centres unmarked) [MMV028038],0.612 µM,0.489 µM,0.555 µM,0.297 µM,–,–
COc1ccc(C(=O)C2CC2c2ccc(Cl)cc2)cc1 (centres unmarked) [MMV665924],1.69 µM,1.38 µM,1.29 µM,0.966 µM,–,–
CN(C)CCCN(C)C(=O)C1Cc2cc(-c3ccccc3)ccc2N1S(=O)(=O)c1ccccc1 (centres unmarked) [MMV028895],2.17 µM,0.153 µM,2.76 µM,0.371 µM,maintained potency,–
O=C(Nc1ccc(Cl)c(Cl)c1)Nc1ccc(Cl)c(Cl)c1 [MMV665852],1.75 µM,1.59 µM,1.95 µM,0.716 µM,–,–
Cl.c1ccc2c(NCCCCCCNc3c4c(nc5ccccc35)CCCC4)c3c(nc2c1)CCCC3 [MMV019555],0.188 µM,0.491 µM,0.262 µM,0.23 µM,–,–
COc1ccc2c3c([nH]c2c1)[C@H](CO)N(C(C)=O)CC31CCN(C(=O)Nc2ccccc2F)CC1 [MMV673482],0.007 µM,0.176 µM,0.007 µM,–,–,0.094 µM
Cc1ccc(S(=O)(=O)n2cc(-c3ccnc(N)c3)c3cc(Br)cnc32)cc1 [MMV024114],1.86 µM,1.05 µM,3.34 µM,0.669 µM,–,–
CNCc1ccc2nc(-c3coc(Cc4cc(Cl)ccc4OCC(C)C)n3)[nH]c2c1.Cl.Cl [MMV026596],0.206 µM,0.645 µM,0.307 µM,0.349 µM,–,–
Cc1cc(Nc2ccc(OCc3ccccc3)cc2)nc2cc(O)ccc12 [MMV007181],0.128 µM,0.034 µM,0.153 µM,0.105 µM,–,–
OC(CNC1CCCCC1)Cn1c2ccccc2c2ccccc21 (centres unmarked) [MMV009063],0.411 µM,0.126 µM,0.457 µM,0.144 µM,–,–
O=C(NC(c1ccccc1)c1ccc2cccnc2c1O)c1ccccc1 (centres unmarked) [MMV666080],1.19 µM,3.17 µM,1.11 µM,0.571 µM,–,–
CN(C)CCCNCc1ccc(-c2ccc(Cl)c(Cl)c2)o1 [MMV673964],0.756 µM,0.561 µM,1.05 µM,–,–,0.315 µM
COc1ccccc1CNC(=O)CCn1c(=O)[nH]c2ccsc2c1=O [MMV019066],0.014 µM,1.27 µM,0.008 µM,0.042 µM,–,–
CC(C)(C)OC(=O)N1CCN(c2ccccc2NC(=O)c2cccc(C(F)(F)F)c2Oc2ccc(F)cc2)CC1 [MMV030666],0.221 µM,0.298 µM,0.248 µM,0.284 µM,–,–
COc1ccc(N2CCN(C(CNC(=O)C3CCCCC3)c3ccc4c(c3)OCO4)CC2)cc1 (centres unmarked) [MMV019662],0.512 µM,0.428 µM,0.452 µM,0.481 µM,–,–
CCCCCCCN(Cc1ccc(OC(C)(C)C(=O)OCC)cc1)C(=O)Nc1ccc(Cl)cc1OCC [MMV021735],0.773 µM,0.361 µM,1.78 µM,0.269 µM,–,–
